Source: patent publication US9170257B2 (priority 2012, dated 2015)

Legend:
in vivo [1] = type: in vivo, Beagle dogs; conditions: dog, in vivo, iv, 10 mg/kg
Description: (§1) The results and analysis for the study are presented for intravenous infusion dosing of a total dose of 10 mg/kg infused over a period of either 2 or 8 hours. Plasma levels of curcumin and its metabolite, THC were measured at timed intervals post-dosing.
For the 2 hour infusion, blood samples were taken at predose and 0.25, 0.5, 1.5 and at 2 hours during infusion and at 15 minutes post-infusion. For the 8 hour infusion, blood samples were taken at predose and 0.25, 0.5, 1.5, […] and at 8 hours during infusion and at 15 minutes post-infusion.
(§2) Bioanalysis was performed on two sets of samples, one set that was treated with phosphoric acid and one set that was not treated with phosphoric acid. […] Values that were below the limit of quantification were assigned a value of 0.
Plasma concentration vs. time profiles were analyzed using (unless otherwise stated) the data from 4 dogs. Plasma profiles for the test articles are presented as the mean data±SE of 4 dogs. Average plasma concentrations were used to perform the PK analysis. Plasma concentration vs. time profiles were analyzed and the PK parameters estimated using WinNonlin Version 5.2.1 employing the intravenous infusion model with first order elimination. Unless stated otherwise, the plasma concentration-time profiles for the test articles are presented as the mean data±SE of 4 dogs.

in vivo [2] = experiment: in vivo; set-up: species or system Beagle dogs; conditions: dog, in vivo; for concentration at 15 min post-infusion / concentration at 15 min / Kp at 2 h / Kp at 8 h: both sexes; for Kp at 2 h / Kp at 8 h: Kp [tissue]/[plasma]
Description: The test article will be administered to 8 Beagle dogs by intravenous infusion over two hours (Part A) or eight hours (Part B) as shown in Table 6.
(§3) Multiple samples of tissue weighing approximately 1 gram were removed and snap frozen in the presence or absence of phosphoric acid (H3PO4). For all tissue samples, the levels of curcumin and THC were determined using a method developed by the Bioanalytical Department at Nucro-Technics. […] Values that were below the limit of quantification were assigned a value of 0. […] Tissue distribution data was analyzed using, unless stated, the data from 4 dogs and are presented as the mean±standard error (S.E.).

[3] = rat, rodent studies; cited from earlier work
[4] = system: MPTP-induced depletion of DA and DOPAC; conditions: 80 mg/kg i.p.; cited from earlier work
in vivo [5] = type: in vivo, Beagle dogs; conditions: dog, in vivo
Description: as §1, §2
as §3, with “Fifteen minutes following either the 2 hour or 8 hour infusion, blood, urine and bile samples were taken, prior to the dogs being necropsied and organs removed for the isolation of tissues. Multiple” for “Multiple”

Molecule `COc1cc(/C=C/C(=O)CC(=O)/C=C/c2ccc(O)c(OC)c2)ccc1O` [Curcumin, 1,7-bis(4-hydroxy-3-methoxyphenyl)-1,6-heptadiene-3,5-dione, reference compound] has a clearance (in vivo [1]; both sexes, Beagle) of 343 mL/min/kg, a Cmax (in vivo [1]; both sexes, Beagle, Cmax) of 15 ng/mL and an MRT (in vivo [1]; both sexes, beagle) of 36 min. The Vd (in vivo [1]; both sexes, beagle) was 12.7 L/kg, the clearance (in vivo [1]; both sexes, beagle) was 343 mL/min/kg and the half-life (in vivo [1]; both sexes, beagle) was 24 min. For the same molecule, the AUC (in vivo [1]; both sexes, beagle, AUC) was 65 ng·h/mL, the AUC (in vivo [1]; both sexes, beagle, AUC (estimated PK parameter)) was 485 ng·h/mL and the Cmax (in vivo [1]; both sexes, beagle, Cmax) was 46 ng/mL. The Cmax (in vivo [1]; both sexes, beagle, Cmax (estimated PK parameter)) was 233 ng/mL, the AUC (in vivo [1]; both, Beagle) was 52 ng·h/mL and the Ke (in vivo [1]; both, Beagle) was 1.6 h⁻¹. For the same molecule, the concentration at 15 min post-infusion (in vivo [2]; Beagle, Tissue analysis, Liver) was 28.4 ng/g, the concentration at 15 min post-infusion (in vivo [2]; Beagle, Tissue analysis, Spleen) was 22.9 ng/g and the concentration at 15 min (in vivo [2]; Beagle, Tissue level, Brain Stem) was 0.3 ng/g. The concentration at 15 min (in vivo [2]; beagle, Average tissue concentration, Bladder) was 0.66 ng/g, the concentration at 15 min (in vivo [2]; beagle, Average tissue concentration, Brainstem) was 0.45 ng/g and the concentration at 15 min (in vivo [2]; beagle, Average tissue concentration, Heart) was 0.47 ng/g. It also gave a concentration at 15 min (in vivo [2]; beagle, Average tissue concentration, Intestinal wall) of 1.14 ng/g, a concentration at 15 min (in vivo [2]; beagle, Average tissue concentration, Striatum) of 0.48 ng/g and a Kp at 2 h (in vivo [2]; beagle, Brain Stem) of 0.0081. It also gave a Kp at 8 h (in vivo [2]; beagle, Brain Stem) of 0.0389, a Kp at 2 h (in vivo [2]; beagle, Cortex, Brain) of 0.0134 and a Kp at 8 h (in vivo [2]; beagle, Cortex, Brain) of 0.0544. The Kp at 2 h (in vivo [2]; beagle, Heart) was 0.0087, the Kp at 8 h (in vivo [2]; beagle, Heart) was 0.0503 and the Kp at 2 h (in vivo [2]; beagle, Hippocampus) was 0.0016. The Kp at 8 h (in vivo [2]; beagle, Hippocampus) was 0.0007, the Kp at 2 h (in vivo [2]; beagle, Intestinal Wall) was 0.0206 and the Kp at 8 h (in vivo [2]; beagle, Intestinal Wall) was 0.0564. It also gave a Kp at 2 h (in vivo [2]; beagle, Kidney) of 0.0161, a Kp at 8 h (in vivo [2]; beagle, Kidney) of 0.186 and a Kp at 2 h (in vivo [2]; beagle, Liver) of 0.0329. For the same molecule, the Kp at 8 h (in vivo [2]; beagle, Liver) was 1.9, the Kp at 2 h (in vivo [2]; beagle, Lungs) was 0.413 and the Kp at 8 h (in vivo [2]; beagle, Lungs) was 16.8. The Kp at 2 h (in vivo [2]; beagle, Muscle) was 0.0034, the Kp at 8 h (in vivo [2]; beagle, Muscle) was 0.053 and the Kp at 2 h (in vivo [2]; beagle, Pancreas) was 0.0166. It also gave a Kp at 8 h (in vivo [2]; beagle, Pancreas) of 0.191, a Kp at 2 h (in vivo [2]; beagle, Striatum) of 0.0087 and a Kp at 8 h (in vivo [2]; beagle, Striatum) of 0.0329. For the same molecule, the Kp at 2 h (in vivo [2]; beagle, Urinary Bladder) was 0.0125, the Kp at 8 h (in vivo [2]; beagle, Urinary Bladder) was 0.152 and the concentration at 15 min (in vivo [2]; beagle, Tissue analysis, Brainstem) was 0.45 ng/g. For the same molecule, the concentration at 15 min (in vivo [2]; beagle, Tissue analysis, Cortex) was 0.73 ng/g, the concentration at 15 min (in vivo [2]; beagle, Tissue level, Cortex, Brain) was 0.52 ng/g and the concentration at 15 min (in vivo [2]; beagle, Tissue level, Heart) was 0.49 ng/g. For the same molecule, the “Average tissue concentration, Bladder” value (in vivo [2]; both, beagle, 15 min) was 0.87 ng/gm, the “Average tissue concentration, Brainstem” value (in vivo [2]; both, beagle, 15 min) was 0.57 ng/gm and the “Average tissue concentration, Cortex” value (in vivo [2]; both, beagle, 15 min) was 0.80 ng/gm. The “Average tissue concentration, Heart” value (in vivo [2]; both, beagle, 15 min) was 0.74 ng/gm, the “Average tissue concentration, Striatum” value (in vivo [2]; both, beagle, 15 min) was 0.49 ng/gm and the “Tissue analysis, Brainstem” value (in vivo [2]; both, beagle, 15 min) was 0.32. The “Tissue analysis, Cortex” value (in vivo [2]; both, beagle, 15 min) was 0.52, the “Tissue level, Brain Stem” value (in vivo [2]; both, beagle, 15 min) was 0.41 ng/g and the “Tissue level, Cortex, Brain” value (in vivo [2]; both, beagle, 15 min) was 0.72 ng/g. The “Tissue level, Heart” value (in vivo [2]; both, beagle, 15 min) was 0.67 ng/g, the “Kp [tissue]/[plasma], Liver” value (in vivo [2]; both, beagle, 8 h) was 1.9047 and the “Kp [tissue]/[plasma], Lungs” value (in vivo [2]; both, beagle, 8 h) was 16.8289. The Kp values [3] was 0.06-0.25, the “MPTP-induced depletion of DA and DOPAC” value [4] was “significantly reversed” and the concentration at 15 min (in vivo [5]; both sexes, Beagle, Plasma level) was 0 ng/mL. The Plasma level (in vivo [5]; both, beagle, 15 min) was 0 ± 0 ng/mL.
